Measurements published in patent US10202371B2, “Oxazolidin-2-one-pyrimidine derivatives and the use thereof as phosphatidylinositol-3-kinase inhibitors” (Novartis AG, priority 2012, dated 2019).
Read-outs that look alike come from different tables or passages of the source.

Legend:
[1] = system: SCC12B2 cells; test: BrdU cell proliferation assay SCC12B2; type: cell-based; settings: Homo sapiens, BrdU incorporation
Source text: The SCL-1 and SCC12B2 are human cutaneous squamous cell carcinoma (SCC) cell lines derived from naturally occurring, poorly differentiated SCCs. The SCL-1 cell line was originally established in the lab of N. Fusenig at the Cancer Research Center in Heidelberg, and its growth characteristics in vitro in comparison to normal keratinocytes were described previously (Neely et al 1991). The SCC12B2 cell line was established as described previously (Rheinwald & Beckett 1981) from the facial skin of a transplant patient who received immunosuppressive therapy for 7 years. The human SCC cell line Detroit562 was obtained from American Tissue Culture Collection (ATCC). Detroit562 is referred to as Head & Neck squamous cell carcinomas (HNSCC) and was derived from a pharyngeal SCC tumor. […]
Cells of SCC or keratinocyte lines (Detroit562, SCC12B2, SCL1, HaCaT) were used for the proliferation assays when they had reached about 80% to 90% confluency. Cells were then harvested after trypsin-mediated dislodgement from culture flasks, washed in culture medium containing 10% FCS, counted in a hemocytometer and diluted complete culture medium with 5% FCS to obtain a cell density of 5×10^4 cells/ml. […] The cell proliferation was determined on the basis of incorporation of bromodesoxy-uridin (BrdU) into cellular DNA using the chemiluminescent BrdU Cell Proliferation ELISA (Roche article #11 669 915 001). […]

[2] = biological target: human PI3Kα (Homo sapiens (Human), UniProt P42336); test: Biochemical assay PI3Kalpha (KinaseGlo luminescence); settings: 1 μM ATP
Source text: Cancer Ther. accepted). […] (L-alpha-phosphatidylinositol (PI), Liver, Bovine) were obtained from Avanti Polar Lipid (Cat. […] (Avanti, Cat. No. 840046X) or L-α-phosphatidylinositol (PI) was obtained from Avanti Polar Lipid (Cat. […] Luminescence is a well established readout to determine ATP concentrations and can thus be used to follow the activity of many kinases regardless of their substrate. The Kinase Glo Luminescent Kinase Assay (Promega, Madison/WI, USA) is a homogeneous HTS method of measuring kinase activity by quantifying the amount of ATP remaining in solution following a kinase reaction. 50 nL of compound dilutions were dispensed onto black 384-well low volume Non Binding Styrene (NBS) plates (Costar Cat. No. […] L-α-phosphatidylinositol (PI), provided as 10 mg/ml solution in methanol, was transferred into a glass tube and dried under nitrogen beam. […] NVP-BGT226 was used as a reference compound and included in all assay plates in the form of 16 dilution points in duplicate. […] All fits were performed with the program XLfit4 (ID Business Solutions, Guildford, UK).

Chain of human PI3Kα (P42336 21-1068): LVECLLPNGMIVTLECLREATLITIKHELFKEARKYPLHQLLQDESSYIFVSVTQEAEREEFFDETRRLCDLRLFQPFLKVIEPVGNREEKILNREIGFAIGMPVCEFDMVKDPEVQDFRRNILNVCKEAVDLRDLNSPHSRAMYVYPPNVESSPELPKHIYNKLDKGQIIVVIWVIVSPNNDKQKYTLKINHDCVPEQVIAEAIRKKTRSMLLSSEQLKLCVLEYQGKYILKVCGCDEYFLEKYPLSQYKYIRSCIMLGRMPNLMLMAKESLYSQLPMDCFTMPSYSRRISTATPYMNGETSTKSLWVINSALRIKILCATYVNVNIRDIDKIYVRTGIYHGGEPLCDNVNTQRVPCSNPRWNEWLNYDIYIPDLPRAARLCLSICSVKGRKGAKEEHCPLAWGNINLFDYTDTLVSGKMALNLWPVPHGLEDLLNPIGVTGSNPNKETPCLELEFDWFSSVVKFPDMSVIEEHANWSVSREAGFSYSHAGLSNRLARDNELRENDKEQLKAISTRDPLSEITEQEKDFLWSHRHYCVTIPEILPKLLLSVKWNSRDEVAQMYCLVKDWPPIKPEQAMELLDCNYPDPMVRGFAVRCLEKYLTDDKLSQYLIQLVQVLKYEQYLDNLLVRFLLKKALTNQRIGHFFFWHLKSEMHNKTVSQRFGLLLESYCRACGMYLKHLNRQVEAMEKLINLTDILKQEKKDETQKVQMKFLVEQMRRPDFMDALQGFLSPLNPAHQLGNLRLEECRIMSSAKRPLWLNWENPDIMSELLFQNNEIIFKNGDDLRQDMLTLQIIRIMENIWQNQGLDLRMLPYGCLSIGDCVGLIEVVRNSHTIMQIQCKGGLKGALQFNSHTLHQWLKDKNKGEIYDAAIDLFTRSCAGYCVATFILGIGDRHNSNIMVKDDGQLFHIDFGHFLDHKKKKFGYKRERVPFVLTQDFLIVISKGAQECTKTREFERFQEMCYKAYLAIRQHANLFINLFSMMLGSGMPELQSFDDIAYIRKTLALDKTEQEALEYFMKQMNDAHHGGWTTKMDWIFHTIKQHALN

| Compound | IC50 ([1]; measurement #1, read-out: anti-proliferative IC50 SCC12B2 measurement #1) [nM] | IC50 ([1]; measurement #2, read-out: anti-proliferative IC50 SCC12B2 measurement #2) [nM] | PI3Ka/IC50 [2] [umol I-1] |
| --- | --- | --- | --- |
| C[C@H]1[C@H](c2nccs2)OC(=O)N1c1cc(-c2cnc(N)nc2C(F)(F)F)nc(N2CCOCC2)n1 [Example 1, (4S,5R)-3-(2′-Amino-2-morpholin-4-yl-4′-trifluoromethyl-[4,5′]bipyrimidinyl-6-yl)-4-methyl-5-thiazol-2-yl-oxazolidin-2-one] | 1290 | 703 |  |
| Nc1ncc(-c2cc(N3C(=O)O[C@@H](c4ccccc4)[C@@H]3CO)nc(N3CCOCC3)n2)c(C(F)(F)F)n1 [Example 10] |  |  | 0.009 |
